This is an account of results in US9850251B2, “Imidazole derivative used as antiviral agent and use therof in preparation of medicament” (priority 2013, dated 2017).

pEC50: −log10 of the molar value. A value given as a limit tells only on which side of the number the result lay.

For series [1], the system named is RSV respiratory tract virus (A long strain). The experiment in a line: RSV long CPE assay (cytopathic effect assay), EC50. It counts as cell-based. To be noted: human respiratory syncytial virus, HEp-2, 120 h; Hep2 cells infected with RSV A long strain, 5 days, CCK-8 readout. The protocol: (§1) Detect EC50 and CC50 values of anti RSV respiratory tract virus compounds through the cytopathic effect assay.
Virus strain: RSV respiratory tract virus (A long strain)
(§2) The cell plate was centrifugated (300 rpm) to make the cells adherent to the wall, placed into a 37° C., 5% CO2 incubator overnight.
(§3) 1) the compound in 100% DMSO underwent a semi logarithmic dilution, then was added to the cell plate with a Echo liquid handler. Ensure that the final concentration of DMSO was 1%;
(§4) 2) Cell-control hole: no compound and viruse were added; virus-control hole: no compound was added.
dilute RSV viruses to 100 TCID50/30 μL with medium cultured with 4° C. cells, and then add the diluted viruses to a cell plate (30 μL/hole) with Multidrop® automatic liquid distributor, and then placed into a 37° C., 5% CO2 culture incubator for 5 days.
1) after 5 days, observe the pathological change in each hole.
(§5) 2) add CCK-8 (Dojindo-CK04-20, 6 μL/hole) to 384 well plate with Multidrop® automatic liquid distributor;
(§6) 3) place the plate at a 37° C., 5% CO2 culture incubator for 3˜4 h, read the absorbance value with SPECTRA max 340PC_Molecular device at 450 nm and 630 nm;

The nature of series [2]: RSV long CPE assay (cytopathic effect assay), CC50 toxicity in vitro. It counts as cell-based. To be noted: human, Hep2 cells, CCK-8 readout, top concentration 100 μM. The protocol: as §1, §2, §3, §4, §5, §6

In series [1], `CCC(F)(F)Cn1c(CN2C(=O)C3(CN(C(=O)OC(C)C)C3)c3ccccc32)nc2c1CCCC2` [Embodiment 67, Isopropyl 1′-((1-(2,2-difluorobutyl)-4,5,6,7-tetrahydro-1H-benzo[d]imidazol-2-yl)methyl)-2′-oxospiro[azetidine-3,3′-indoline]-1-carboxylate] gave a pEC50 of 6.00 to 7.00. For the same molecule, the CC50 at 5 days in series [2] was more than 100000 nM.

For the molecule `CCOC(=O)N1CC2(C1)C(=O)N(Cc1nc3c(n1CCC(C)C)CCCC3)c1ccccc12` [Embodiment 72, Ethyl 1′-((1-isopentyl-4,5,6,7-tetrahydro-1H-benzo[d]imidazol-2-yl)methyl)-2′-oxospiro[azetidine-3,3′-indoline]-1-carboxylate], the pEC50 in series [1] was more than 7.00. This molecule also displayed a CC50 at 5 days in series [2] of more than 100000 nM.

For the molecule `CC(C)=C(F)Cn1c(CN2C(=O)C3(CN(C(=O)OC(C)C)C3)c3ccccc32)nc2c1CCCC2` [Embodiment 71, Isopropyl 1′-((1-(2-fluoro-3-methylbut-2-en-1-yl)-4,5,6,7-tetrahydro-1H-benzo[d]imidazol-2-yl)methyl)-2′-oxospiro[azetidine-3,3′-indoline]-1-carboxylate], the pEC50 in series [1] is 6.00 to 7.00. In series [2], this molecule showed a CC50 at 5 days of more than 100000 nM.

`O=C1N(Cc2nc3c(n2CCCCO)CCCC3)c2ccccc2C12CC2` [Embodiment 63, 1′-((1-(4-Hydroxybutyl)-4,5,6,7-tetrahydro-1H-benzo[d]imidazol-2-yl)methyl)spiro[cyclopropane-1,3′-indoline]-2′-one]: in series [1], the pEC50 was more than 7.00. The molecule also came in with a CC50 at 5 days in series [2] of more than 100000 nM.

In series [1], `CCOC(=O)N1CC2(C1)C(=O)N(Cc1nc3c(n1CCCC(F)(F)F)CCCC3)c1cc(F)ccc12` [Embodiment 83, Ethyl 6′-fluoro-2′-oxo-1′-((1-(4,4,4-trifluorobutyl)-4,5,6,7-tetrahydro-1H-benzo[d]imidazol-2-yl)methyl)spiro[azetidine-3,3′-indoline]-1-carboxylate] had a pEC50 of more than 7.00. The same molecule came in with a CC50 at 5 days in series [2] of more than 100000 nM.

The molecule `CC(C)OC(=O)N1CC2(C1)C(=O)N(Cc1nc3c(n1CCCC(F)F)CCCC3)c1ccccc12` [Embodiment 64, Isopropyl 1′-((1-(4,4-difluorobutyl)-4,5,6,7-tetrahydro-1H-benzo[d]imidazol-2-yl)methyl)-2′-oxospiro[azetidine-3,3′-indoline]-1-carboxylate] gave a pEC50 in series [1] of more than 7.00. The CC50 at 5 days in series [2] was more than 100000 nM.

`CC(C)OC(=O)N1CC2(C1)C(=O)N(Cc1nc3c(n1CCCC(F)(F)F)CCCC3)c1cc(Cl)ccc12` [Embodiment 81, Isopropyl 6′-chloro-2′-oxo-1′-((1-(4,4,4-trifluorobutyl)-4,5,6,7-tetrahydro-1H-benzo[d]imidazol-2-yl)methyl)spiro[azetidine-3,3′-indoline]-1-carboxylate] gave a negative-log EC50 (pEC50) in series [1] of more than 7.00. In series [2], the CC50 at 5 days is more than 100000 nM.

For `CC(C)OC(=O)N1CC2(C1)C(=O)N(Cc1nc3c(n1CCCCO)CCCC3)c1cccc(Cl)c12` [Embodiment 85, Isopropyl 4′-chloro-1′-((1-(4-hydroxybutyl)-4,5,6,7-tetrahydro-1H-benzo[d]imidazol-2-yl)methyl)-2′-oxospiro[azetidine-3,3′-indoline]-1-carboxylate], the pEC50 in series [1] is more than 7.00. In addition, the CC50 in series [2] (5 days) was more than 100000 nM.

In series [1], `Cc1nc(CN2C(=O)C3(CN(C(=O)OC(C)C)C3)c3ccccc32)n(CCCCO)c1C` [Embodiment 100, Isopropyl 1′-((1-(4-hydroxybutyl)-4,5-dimethyl-1H-imidazol-2-yl)methyl)-2′-oxospiro[azetidine-3,3′-indoline]-1-carboxylate] gave a pEC50 of more than 7.00. Further, the CC50 at 5 days in series [2] is more than 100000 nM.

Turning to `CCOC(=O)N1CC2(C1)C(=O)N(Cc1nc3c(n1CCCC(F)(F)F)CCCC3)c1ccccc12` [Embodiment 75, Ethyl 2′-oxo-1′-((1-(4,4,4-trifluorobutyl)-4,5,6,7-tetrahydro-1H-benzo[d]imidazol-2-yl)methyl)spiro[azetidine-3,3′-indoline]-1-carboxylate], the pEC50 in series [1] was more than 7.00. The same molecule came in with a CC50 at 5 days in series [2] of more than 100000 nM.

For the molecule `CCOC(=O)N1CC2(C1)C(=O)N(Cc1nc3c(n1CCCC(F)(F)F)CCC3)c1ccccc12` [Embodiment 104, Ethyl 2′-oxo-1′-((1-(4,4,4-trifluorobutyl)-1,4,5,6-tetrahydrocyclopenta[d]imidazol-2-yl)methyl)spiro[azetidine-3,3′-indoline]-1-carboxylate], the pEC50 in series [1] is more than 7.00. The molecule further showed a CC50 at 5 days in series [2] of more than 100000 nM.

For the molecule `CC(C)C(=O)N1CC2(C1)C(=O)N(Cc1nc3c(n1CCCC(F)(F)F)CCCC3)c1ccccc12` [Embodiment 95, 1-Isobutyryl-1′-((1-(4,4,4-trifluorobutyl)-4,5,6,7-tetrahydro-1H-benzo[d]imidazol-2-yl)methyl)spiro[azetidine-3,3′-indoline]-2′-one], in series [1], the pEC50 was more than 7.00. In series [2], the CC50 at 5 days was more than 100000 nM.

Regarding `C=CCCn1c(CN2C(=O)C3(CN(C(=O)OC(C)C)C3)c3ccc(Cl)cc32)nc2c1CCCC2` [Embodiment 107, Isopropyl 1′-((1-(but-3-en-1-yl)-4,5,6,7-tetrahydro-1H-benzo[d]imidazol-2-yl)methyl)-6′-chloro-2′-oxospiro[azetidine-3,3′-indoline]-1-carboxylate], in series [1], the pEC50 is more than 7.00. Also, the CC50 at 5 days in series [2] was more than 100000 nM.

Turning to `CCOC(=O)N1CC2(C1)C(=O)N(Cc1nc3c(n1CCCC#N)CCCC3)c1ccccc12` [Embodiment 74, Ethyl 1′-((1-(3-cyanopropyl)-4,5,6,7-tetrahydro-1H-benzo[d]imidazol-2-yl)methyl)-2′-oxospiro[azetidine-3,3′-indoline]-1-carboxylate], the pEC50 in series [1] is more than 7.00. The molecule also gave a CC50 at 5 days in series [2] of more than 100000 nM.

In series [1], `CC(C)OC(=O)N1CC2(C1)C(=O)N(Cc1nc3c(n1CCCC(F)(F)F)C(=O)CCC3)c1ccccc12` [Embodiment 108, Isopropyl 2′-oxo-1′-((7-oxo-1-(4,4,4-trifluorobutyl)-4,5,6,7-tetrahydro-1H-benzo[d]imidazol-2-yl)methyl)spiro[azetidine-3,3′-indoline]-1-carboxylate] had a pEC50 of 6.00 to 7.00. The molecule further registered a CC50 at 5 days in series [2] of more than 100000 nM.

In series [1], `O=C(C(F)F)N1CC2(C1)C(=O)N(Cc1nc3c(n1CCCC(F)(F)F)CCCC3)c1ccccc12` [Embodiment 96, 1-(2,2-Difluoroacetyl)-1′-((1-(4,4,4-trifluorobutyl)-4,5,6,7-tetrahydro-1H-benzo[d]imidazol-2-yl)methyl)spiro[azetidine-3,3′-indoline]-2′-one] had a pEC50 of more than 7.00. In addition, the CC50 at 5 days in series [2] is more than 100000 nM.

Regarding `CC(C)OC(=O)N1CC2(C1)C(=O)N(Cc1nc3c(n1CCCC(F)(F)F)CCCC3)c1ccc(Br)cc12` [Embodiment 79, Isopropyl 5′-bromo-2′-oxo-1′-((1-(4,4,4-trifluorobutyl)-4,5,6,7-tetrahydro-1H-benzo[d]imidazol-2-yl)methyl)spiro[azetidine-3,3′-indoline]-1-carboxylate], the pEC50 in series [1] is more than 7.00. The molecule further displayed a CC50 at 5 days in series [2] of more than 100000 nM.

`CC1(C(=O)N2CC3(C2)C(=O)N(Cc2nc4c(n2CCCC(F)(F)F)CCCC4)c2ccccc23)CC1` [Embodiment 91] had a pEC50 in series [1] of more than 7.00. The molecule further displayed a CC50 at 5 days in series [2] of more than 100000 nM.

`CC(C)OC(=O)N1CC2(C1)C(=O)N(Cc1nc3c(n1/C=C(\F)C(C)C)CCCC3)c1ccccc12` [Embodiment 70, Isopropyl (Z)-1′-((1-(2-fluoro-3-methylbut-1-en-1-yl)-4,5,6,7-tetrahydro-1H-benzo[d]imidazol-2-yl)methyl)-2′-oxospiro[azetidine-3,3′-indoline]-1-carboxylate] showed a pEC50 in series [1] of more than 7.00. The molecule also displayed a CC50 at 5 days in series [2] of more than 100000 nM.

`CC(C)OC(=O)N1CC2(C1)C(=O)N(Cc1nc3c(n1CCCC(F)(F)F)CCCC3)c1cc(F)ccc12` [Embodiment 82, Isopropyl 6′-fluoro-2′-oxo-1′-((1-(4,4,4-trifluorobutyl)-4,5,6,7-tetrahydro-1H-benzo[d]imidazol-2-yl)methyl)spiro[azetidine-3,3′-indoline]-1-carboxylate] had a pEC50 in series [1] of more than 7.00. The molecule further showed a CC50 at 5 days in series [2] of more than 100000 nM.

As for `CC(C)OC(=O)N1CC2(C1)C(=O)N(Cc1nc3c(n1CCCC(F)(F)F)CCCC3)c1cccc(Cl)c12` [Embodiment 86, Isopropyl 4′-chloro-2′-oxo-1′-((1-(4,4,4-trifluorobutyl)-4,5,6,7-tetrahydro-1H-benzo[d]imidazol-2-yl)methyl)spiro[azetidine-3,3′-indoline]-1-carboxylate], the pEC50 in series [1] is more than 7.00. Besides, the CC50 at 5 days in series [2] was more than 100000 nM.

On to `CC(=O)N1CC2(C1)C(=O)N(Cc1nc3c(n1CCCC(F)(F)F)CCCC3)c1ccccc12` [Embodiment 92, 1-Acetyl-1′-((1-(4,4,4-trifluorobutyl)-4,5,6,7-tetrahydro-1H-benzo[d]imidazol-2-yl)methyl)spiro[azetidine-3,3′-indoline]-2′-one], for which, in series [1], the pEC50 was more than 7.00. This molecule came in with a CC50 at 5 days in series [2] of more than 100000 nM.

In series [1], `O=C(C1CC1)N1CC2(C1)C(=O)N(Cc1nc3c(n1CCCC(F)(F)F)CCCC3)c1cc(F)ccc12` [Embodiment 84, 1-(Cyclopropanecarbonyl)-6′-fluoro-1′-((1-(4,4,4-trifluorobutyl)-4,5,6,7-tetrahydro-1H-benzo[d]imidazol-2-yl)methyl)spiro[azetidine-3,3′-indoline]-2′-one] had a pEC50 of more than 7.00. The CC50 at 5 days in series [2] is more than 100000 nM.
